# Entries after “also recorded” stand apart in the source; their conditions may differ.
# Columns and labels:
# Format in all cases: in vivo, mouse
# [1] = tested on: C57BL/6J mice fed high fat diet; assay: Plasma insulin level (ELISA), high-fat diet induced model; conditions: day 14 of treatment after 8 weeks high-fat diet; P<0.05; GW1929 5 mg/kg, UP394 and UP396 100 mg/kg
# Source text: A high-fat diet induced animal model was developed and used for evaluation of potential therapeutic effects of chromone extracts. The C57BL/6J is a clinically relevant animal model that can be used in studies on metabolic disorders, pathophysiology of impaired glucose tolerance and for development of novel therapeutic agents (Ahren et al. (2004) Diabetes 53 (Supplement 3):S215-S219; Laakso et al. (2004) Diabetes Care 27:2253-2259; Kahn et al. (2004) Diabetes 53:3274-3285; Scheurink et al. (1998) European J Endo. 139:461-467; Yuan et al. (2002) Diabetes 51:1851-1858; Reitman et al. (2005) Endocrinology 145:3258-3264; Vlassara et al. (2005) Diabetes 54:2314-2319; Cawthome et al. (2002) Molecular and Cellular Proteomics 1:509-516). Methodology of model induction was first explained by Surwit et al. in 1988 (Diabetes, 37:1163-1167). In brief, impaired glucose tolerance and metabolic disorder like symptoms were inflicted successfully in C57BL/6J mice when fed with high fat diets for 8 weeks. Male C57BL/6J mice were purchased from Jackson Laboratories (Bar Harbor, Me.) at age of 6 weeks. One week after acclimation period, animals were divided into groups (n=5 or 6) and provided with high fat (45% kcal) rodent pellet (Research diets, Inc., New Brunswick, N.J.) and water ad libitum for 12 weeks except at times of glucose and insulin tolerance tests at which feed was withheld for three hours. Animals were maintained in a temperature controlled room (22.2° C.) on a 12 hour light-dark cycle. Blood glucose, cholesterol, and triglyceride were monitored every week for 12 weeks as described previously. Body weight measurement was taken once a week for 12 weeks.
# Once induction of the metabolic disorders was confirmed by weekly monitoring of selected parameters (glucose, triglyceride and cholesterol) i.e. on the 8th week, daily intraperitoneal treatment was initiated and maintained for 4 weeks. […]
# The plasma insulin levels were measured with an ELISA kit for insulin (Crystal Chem—Chicago, Ill.). […]
# db/db mice = assay: Weekly fasting triglyceride levels in db/db mice; conditions: after 10 weeks of treatment, P<0.05
# Procedure: Weekly fasting triglyceride levels of male db/db mice treated with GW1929 (5 mg/kg), N-931 (375 mg/kg) and vehicle were taken for 10 weeks. Animals were provided with T2018 rodent diet ad libitum except when fasting. Animals were fasted overnight before measurements were taken. The values indicated are percent triglyceride levels of vehicle, n=8.
# [2] = tested on: high fat diet induced C57BL/6J mice; assay: Intraperitoneal glucose tolerance test, UP780 dose-range study; conditions: week 3 of daily oral treatment; 30, 60 and 90 minutes; UP780 200 mg/kg, GW1929 5 mg/kg
# Procedure: (§1) Once an induction of the disease on animals after 8 weeks of high fat diets was confirmed by monitoring of selected parameters, daily oral treatment was initiated. On each day, the test articles and the positive control GW1929 (Tocris Bioscience, Ellisville, Mo., Batch #2A/58705) were dissolved in 0.5% methylcellulose (Sigma, St. Louise Mo., Lot#116H0857) and delivered at an oral dose of 100, 200 and 400 mg/kg of UP780 (Lot # L1806QMAW-01); 400 mg/kg of Qmatrix® Aloe vera gel powder (QM400, Lot# G6319103-L3) as well as 5 mg/kg of GW1929. As GW1929 was not completely solublized in methylcellulose, it was first dissolved in DMSO (Sigma, St. Louis, Mo., Batch#064K0067). The final concentration of test compounds, including the vehicle, was then adjusted to contain 5% DMSO before drug administration. The carrier vehicle treated animals received 0.5% methylcellulose only. No detectable sign of irritation was observed after each drug or vehicle administration. […]
# (§2) An intraperitoneal glucose tolerance test was conducted on day 0 (baseline), weeks 3, and 9 after onset of treatment. […] Blood glucose levels were determined at time 0 (before glucose injection), 30, 60, 90, and 120 minutes post glucose delivery. […] Blood glucose levels were determined at time 0 (before insulin injection), 30, 60, 90, and 120 minutes after insulin administration. […]
# [3] = tested on: high fat diet induced C57BL/6J mice; assay: Intraperitoneal insulin tolerance test, UP780 dose-range study; conditions: after 10 weeks of daily oral treatment; P≦0.05
# Procedure: as §1, §2
# [4] = Feed consumption, UP780 dose-range study; conditions: GW1929 5 mg/kg, Qmatrix 400 mg/kg, UP780 100, 200 and 400 mg/kg
# Procedure: Once an induction of the disease on animals after 8 weeks of high fat diets was confirmed by monitoring of selected parameters, daily oral treatment was initiated. On each day, the test articles and the positive control GW1929 (Tocris Bioscience, Ellisville, Mo., Batch #2A/58705) were dissolved in 0.5% methylcellulose (Sigma, St. Louise Mo., Lot#116H0857) and delivered at an oral dose of 100, 200 and 400 mg/kg of UP780 (Lot # L1806QMAW-01); 400 mg/kg of Qmatrix® Aloe vera gel powder (QM400, Lot# G6319103-L3) as well as 5 mg/kg of GW1929. As GW1929 was not completely solublized in methylcellulose, it was first dissolved in DMSO (Sigma, St. Louis, Mo., Batch#064K0067). The final concentration of test compounds, including the vehicle, was then adjusted to contain 5% DMSO before drug administration. The carrier vehicle treated animals received 0.5% methylcellulose only. No detectable sign of irritation was observed after each drug or vehicle administration.
# As described on Example 12, male C57BL/6J mice were purchased from Jackson Laboratories (Bar Harbor, Me.) at 6 weeks of age. […]
# Three or four male C57BL/6J mice were housed in a mouse cage that had sections for feed and water. Feed intake was determined daily by measuring the difference between previously weighed high fat pellets value and what was left on the given day. […]
smiles,measurement,setting,value
"CN(CCOc1ccc(C[C@H](Nc2ccccc2C(=O)c2ccccc2)C(=O)O)cc1)c1ccccn1 [GW1929, N-(2-Benzoylphenyl)-O-[2-(methyl-2-pyridinylamino)ethyl]-L-tyrosine]",plasma insulin levels compared to vehicle,[1],decreased the insulin level significantly; also recorded: Significant decreases in plasma insulin levels
same,fasting triglyceride levels compared to vehicle,db/db mice,significant reduction in triglyceride levels
same,reduction of triglycerides,"db/db mice; N931 375 mg/kg, GW1929 5 mg/kg",43%
same,glucose clearance in intraperitoneal glucose tolerance test vs vehicle,[2],statistically significant glucose clearance
same,significant differences in intraperitoneal insulin tolerance test vs vehicle,[3],after 1 hour insulin injection
same,feed consumption difference between groups,[4],no significant body weight gain or feed consumption differences

# Source: US8852657B2, “Chromones as therapeutic agents” (Unigen, Inc., priority 2007, dated 2014)
